Calls of active or inactive are those of the source.
Columns and labels:
[1] = biological target: Delta-type opioid receptor (Homo sapiens, UniProt P41143); test: Counterscreen for agonists of heterodimerization of the mu 1 (OPRM1) and delta 1 (OPRD1) opioid receptors: Luminescence-based cell-based high throughput dose response assay to identify agonists of OPRD1 homodimerization. [Related pubchem assays (depositor defined):AID504326, AID504355, AID504692, AID504904, AID504905]; format: functional
Mu-type opioid receptor = Mu-type opioid receptor (Homo sapiens, UniProt P35372); test: Counterscreen for agonists of heterodimerization of the mu 1 (OPRM1) and delta 1 (OPRD1) opioid receptors: Luminescence-based cell-based high throughput dose response assay to identify agonists of OPRM1 homodimerization.; format: functional;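 also: U2OS cells expressing OPRM1 and beta-arrestin as split beta-galactosidase partners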
[2] = biological target: 5-hydroxytryptamine receptor 5A (Homo sapiens, UniProt P47898); test: Counterscreen for agonists of OPRM1-OPRD1 heterodimerization: luminescence-based cell-based high throughput dose response assay to identify agonists of 5-hydroxytryptamine (serotonin) 5A receptor (HTR5A). [Related pubchem assays (depositor defined):AID504326, AID504355, AID504692, AID504904, AID504905]; format: functional
[3] = Fluorescence-based cell-based high throughput dose response assay for inhibitors of the interaction of nucleotide-binding oligomerization domain containing 2 (NOD2) and the receptor-interacting serine-threonine kinase 2 (RIPK2).; format: functional; settings: Homo sapiens
Beta Lactamase = Beta Lactamase (Pseudomonas aeruginosa, UniProt Q932Y6); test: beta-lactamase reporter inhibitor potency, dose response, artefact control for NOD2-RIPK2 interaction inhibitor project, BLA reporter cells, FRET fluorescence (AID 651552); format: functional, cell-based
[4] = miR-122 activators in hepatoma reporter cells, dose response, cell-based, Huh7 psiCHECK-miR122, Renilla luciferase, cherry-picked (AID 651956); format: functional;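 also: huh7 hepatoma cells stably carrying a psiCHECK-2 miR-122 sensor plasmid; renilla luciferase signal reporting endogenous miR-122 activity after 48 h compound exposure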
[5] = HeLa cell cytotoxicity, dose response, cytotoxicity control for MgcRacGAP inhibitor project (AID 624300); format: functional
[6] = biological target: T1, Rac GTPase-activating protein 1 (Homo sapiens, UniProt Q9H0H5); test: MgcRacGAP GTPase-activating activity inhibitors, confirmation, biochemical, ADP Hunter fluorescence, primary and confirmatory (AID 624330); format: functional
T1 sequence (Q9H0H5 whole entry): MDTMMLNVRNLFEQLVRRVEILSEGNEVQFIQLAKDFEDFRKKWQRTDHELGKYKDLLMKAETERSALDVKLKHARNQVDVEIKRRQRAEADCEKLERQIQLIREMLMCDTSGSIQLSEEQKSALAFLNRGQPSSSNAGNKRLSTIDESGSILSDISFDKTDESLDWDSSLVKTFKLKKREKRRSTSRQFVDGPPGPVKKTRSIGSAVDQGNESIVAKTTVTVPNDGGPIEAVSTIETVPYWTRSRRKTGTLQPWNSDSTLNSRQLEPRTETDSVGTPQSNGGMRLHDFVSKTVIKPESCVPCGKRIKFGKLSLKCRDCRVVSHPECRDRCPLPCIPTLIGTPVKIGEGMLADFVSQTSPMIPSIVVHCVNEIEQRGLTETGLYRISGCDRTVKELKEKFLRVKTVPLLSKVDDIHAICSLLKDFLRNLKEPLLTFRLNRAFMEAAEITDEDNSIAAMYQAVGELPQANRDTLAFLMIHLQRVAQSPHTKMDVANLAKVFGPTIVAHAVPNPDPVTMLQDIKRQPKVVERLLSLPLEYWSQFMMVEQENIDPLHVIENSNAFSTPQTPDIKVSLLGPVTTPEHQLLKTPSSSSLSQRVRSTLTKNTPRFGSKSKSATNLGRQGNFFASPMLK

[7] = biological target: E3 ubiquitin-protein ligase UHRF1 (Homo sapiens, UniProt Q96T88); test: Counterscreen for inhibitors of 5-meCpG-binding domain protein 2 (MBD2): TRFRET-based biochemical high throughput dose response assay to identify inhibitors of binding of ubiquitin-like with PHD and ring finger domains 1 (UHRF1) to methylated oligonucleotide.
[8] = HEK293T cytotoxicity, dose response, cytotoxicity control for miR-122 modulator project, cell-based, inhibitor set, cherry-pick, set 2 (AID 720697); format: functional
[9] = biological target: T2, High affinity choline transporter 1 (Homo sapiens, UniProt Q9GZV3); test: CHT choline uptake inhibitors, dose response, cell-based, HEK-293 hCHT, [3H]-choline uptake (AID 652177); format: functional
T2 sequence (Q9GZV3 whole entry): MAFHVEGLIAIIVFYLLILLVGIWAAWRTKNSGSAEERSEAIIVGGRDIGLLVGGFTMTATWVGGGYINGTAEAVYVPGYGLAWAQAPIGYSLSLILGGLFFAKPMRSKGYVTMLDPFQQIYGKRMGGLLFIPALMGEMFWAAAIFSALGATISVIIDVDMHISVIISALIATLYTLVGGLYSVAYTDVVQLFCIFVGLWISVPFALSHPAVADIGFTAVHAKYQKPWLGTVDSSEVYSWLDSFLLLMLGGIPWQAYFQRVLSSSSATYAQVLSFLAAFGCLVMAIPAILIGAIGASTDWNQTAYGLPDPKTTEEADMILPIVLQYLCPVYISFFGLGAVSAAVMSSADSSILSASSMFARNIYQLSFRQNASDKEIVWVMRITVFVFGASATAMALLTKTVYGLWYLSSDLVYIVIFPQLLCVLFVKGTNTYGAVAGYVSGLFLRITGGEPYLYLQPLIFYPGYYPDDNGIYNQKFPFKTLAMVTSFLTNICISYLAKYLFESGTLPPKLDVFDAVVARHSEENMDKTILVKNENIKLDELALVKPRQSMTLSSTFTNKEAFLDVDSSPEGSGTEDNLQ

[10] = HepG2 cell cytotoxicity, dose response, cytotoxicity control, cherry-picks, set 5 (AID 1053118); format: functional, cell-based
[11] = HEK293 cell cytotoxicity, dose response, cytotoxicity control, cherry-picks, set 5 (AID 1053117); format: functional, cell-based
[12] = A549 cell cytotoxicity, dose response, cytotoxicity control, cherry-picks, 26 µM top dose (AID 1053119); format: functional, cell-based
[13] = P. falciparum 3D7-ScDHODH growth inhibitors, dose response, SYBR Green, dry powder samples (AID 1159570); format: functional, cell-based;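 also: parasite growth measured after 72 hours of compound exposure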
[14] = HepG2 cell cytotoxicity, dose response, cytotoxicity control, plate reader, dry powder samples (AID 1159569); format: functional, cell-based;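 also: inhibitor potency with signal falling toward the positive control level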
[15] = P. falciparum Dd2 growth inhibitors, dose response, SYBR Green, cherry-picked samples (AID 1159567); format: functional, cell-based
[16] = P. falciparum Dd2 growth inhibitors, dose response, SYBR Green, dry powder samples (AID 1159566); format: functional, cell-based;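 also: potency for growth inhibition with lower SYBR green DNA signal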
[17] = P. falciparum ATP4 D1247Y mutant growth inhibitors, dose response, NITD609-resistant line, SYBR Green, dry powder (AID 1159571); format: functional, cell-based;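 also: parasites synchronized at ring stage by sorbitol before testing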
[18] = test system: Streptococcus sp. 'group A'; test: growth inhibition of control SK(-) GAS strain, dose response, counter-screen for streptokinase expression inhibitor project, luminescence, kanamycin, BacTiterGlo, confirmation (AID 1900); format: functional, organism-based
[19] = biological target: Induced myeloid leukemia cell differentiation protein Mcl-1 (Homo sapiens, UniProt Q07820); format: functional
Streptococcus = test: Group A Streptococcus viability loss, dose response, counter-screen for streptokinase expression inhibitor project, luminescence, BacTiterGlo (AID 1915); format: functional, organism-based;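 also: potency for reduction of bacterial viability or growth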
[20] = human group III sPLA2 inhibitors, dose response, biochemical, QFRET, IC50 (AID 743457);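 also: green fluorescence rise as the enzyme cleaves BODIPY PC-A2 in liposomes; potency for inhibition of the enzyme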
[21] = Counterscreen for […] of the human trace amine associated receptor 1 (TAAR1): Fluorescence-based cell-based high throughput dose response assay to identify nonselective Ga16 agonists.; format: functional
[22] = biological target: T3, Trace amine-associated receptor 1 (Homo sapiens, UniProt Q96RJ0); test: Fluorescence-based cell-based high throughput dose response assay to identify antagonists of the human trace amine associated receptor 1 (TAAR1).; format: functional
T3 sequence (Q96RJ0 whole entry): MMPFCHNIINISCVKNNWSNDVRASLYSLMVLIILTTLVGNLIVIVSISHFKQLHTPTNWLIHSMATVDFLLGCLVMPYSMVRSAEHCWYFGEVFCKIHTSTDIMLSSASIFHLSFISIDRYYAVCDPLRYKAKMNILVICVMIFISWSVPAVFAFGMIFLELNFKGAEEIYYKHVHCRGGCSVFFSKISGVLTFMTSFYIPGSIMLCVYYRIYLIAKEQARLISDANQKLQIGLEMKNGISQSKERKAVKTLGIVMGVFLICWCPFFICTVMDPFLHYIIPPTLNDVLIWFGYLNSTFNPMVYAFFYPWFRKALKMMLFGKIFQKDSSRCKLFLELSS

[23] = Counterscreen for antagonists of the human trace amine associated receptor 1 (hTAAR1): Fluorescence-based cell-based high throughput dose response assay to identify nonselective Ga16 antagonists.; format: functional
[24] = biological target: T3, Trace amine-associated receptor 1; test: Counterscreen for antagonists of the human trace amine associated receptor 1 (hTAAR1): Fluorescence-based cell-based high throughput dose response assay to identify TAAR1 Agonists.; format: functional
[25] = biological target: NAD-dependent protein deacylase sirtuin-5, mitochondrial (Homo sapiens, UniProt Q9NXA8); test: SIRT5 desuccinylase inhibitors, dose response, biochemical, fluorescence imaging, cherry-pick, set 5 (AID 720591);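 also: desuccinylation of succinyl peptide AMC substrate read as fluorescence after trypsin release; potency of inhibitors that lower fluorescence and may act on trypsin instead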
[26] = HEK293 cell cytotoxicity, dose response, cytotoxicity control, ATP luminescence, dry powder, Set6 (AID 743142); format: functional, cell-based
[27] = A549 cell cytotoxicity, dose response, cytotoxicity control, CellTiter-Glo luminescence, dry powder, set 3 (AID 743146); format: functional, cell-based
Paired box protein Pax-8 = Paired box protein Pax-8 (Homo sapiens, UniProt Q06710); test: inhibitors of PAX8-driven TPO luciferase reporter, dose response, RMG-I cells, cherry-pick (AID 687027); format: functional, cell-based;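 also: luciferase reporter driven by Pax8 target thyroperoxidase promoter measured by SteadyGlo luminescence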
[28] = non-specific cell cytotoxicity, dose response, cytotoxicity control for PAX8 inhibitor project, plate reader, dry powder samples (AID 743021); format: functional, cell-based
[29] = Luminescence Cell-Based Dose Retest to Confirm Inhibitors of Cancer Stem Cells. [Related pubchem assays (depositor defined):AID2717, AID2721]; format: functional; settings: Homo sapiens
Vero = test: Vero cell toxicity, dose response, cytotoxicity control, plate reader, cherry-pick samples (AID 687020); format: functional, cell-based; settings: Chlorocebus sabaeus
BHK-21 = test: BHK-21 cell toxicity, dose response, cytotoxicity control, plate reader, cherry-pick samples (AID 687030); format: functional, cell-based; settings: Mesocricetus auratus
A549 = test: A549 cell toxicity, dose response, cytotoxicity control, plate reader, cherry-pick samples (AID 687028); format: functional, cell-based; settings: Homo sapiens
[30] = biological target: Potassium channel subfamily K member 9 (Homo sapiens, UniProt Q9NPC2); test: TASK3 (KCNK9) channel inhibitors, thallium flux, SAR follow-up, selectivity assay for TASK1 inhibitor project, cell-based, FluxOR thallium flux, concentration-response (AID 652211); format: functional;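 also: potency is for inhibitors of the channel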
[31] = biological target: Potassium channel subfamily K member 3 (Rattus norvegicus, UniProt O54912); test: SAR analysis for the identification of selective inhibitors of the two-pore domain potassium channel TASK1(KCNK3):Automated Electrophysiology.; format: functional
[32] = HepG2 cell cytotoxicity, dose response, cytotoxicity control, ATP luminescence, cherry-pick, activator set 2 (AID 1053143); format: functional, cell-based

Sequence of E3 ubiquitin-protein ligase UHRF1 (Q96T88 whole entry, the tested form may be a part): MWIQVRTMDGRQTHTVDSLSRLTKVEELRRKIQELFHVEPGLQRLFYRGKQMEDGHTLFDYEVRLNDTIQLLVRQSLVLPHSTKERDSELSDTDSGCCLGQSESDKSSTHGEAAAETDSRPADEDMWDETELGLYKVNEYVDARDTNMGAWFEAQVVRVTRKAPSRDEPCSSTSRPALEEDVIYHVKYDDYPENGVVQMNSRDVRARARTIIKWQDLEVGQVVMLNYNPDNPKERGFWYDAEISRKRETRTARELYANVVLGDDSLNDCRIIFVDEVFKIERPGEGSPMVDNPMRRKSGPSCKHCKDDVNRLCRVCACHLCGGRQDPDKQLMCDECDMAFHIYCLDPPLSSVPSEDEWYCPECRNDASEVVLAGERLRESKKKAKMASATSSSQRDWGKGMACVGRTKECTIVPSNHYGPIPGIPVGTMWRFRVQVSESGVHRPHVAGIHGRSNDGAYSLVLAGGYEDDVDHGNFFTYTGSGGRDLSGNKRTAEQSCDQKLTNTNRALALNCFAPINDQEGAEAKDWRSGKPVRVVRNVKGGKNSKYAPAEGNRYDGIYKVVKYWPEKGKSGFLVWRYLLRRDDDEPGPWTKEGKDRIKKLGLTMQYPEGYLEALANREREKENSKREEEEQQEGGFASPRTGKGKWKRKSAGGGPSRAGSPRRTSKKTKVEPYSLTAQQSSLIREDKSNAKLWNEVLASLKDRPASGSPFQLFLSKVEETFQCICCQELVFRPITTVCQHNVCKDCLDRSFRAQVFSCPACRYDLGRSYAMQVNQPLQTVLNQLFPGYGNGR
Sequence of NAD-dependent protein deacylase sirtuin-5, mitochondrial (Q9NXA8 whole entry): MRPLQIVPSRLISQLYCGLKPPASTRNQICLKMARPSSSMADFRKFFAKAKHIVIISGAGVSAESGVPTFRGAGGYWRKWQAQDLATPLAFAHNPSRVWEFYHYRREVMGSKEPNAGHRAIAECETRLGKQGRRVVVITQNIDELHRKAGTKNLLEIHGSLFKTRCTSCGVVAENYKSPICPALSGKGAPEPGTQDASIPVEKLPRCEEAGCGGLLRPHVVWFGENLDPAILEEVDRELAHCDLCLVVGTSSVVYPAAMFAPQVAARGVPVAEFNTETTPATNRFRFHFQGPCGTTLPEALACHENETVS
Sequence of Delta-type opioid receptor (P41143 whole entry): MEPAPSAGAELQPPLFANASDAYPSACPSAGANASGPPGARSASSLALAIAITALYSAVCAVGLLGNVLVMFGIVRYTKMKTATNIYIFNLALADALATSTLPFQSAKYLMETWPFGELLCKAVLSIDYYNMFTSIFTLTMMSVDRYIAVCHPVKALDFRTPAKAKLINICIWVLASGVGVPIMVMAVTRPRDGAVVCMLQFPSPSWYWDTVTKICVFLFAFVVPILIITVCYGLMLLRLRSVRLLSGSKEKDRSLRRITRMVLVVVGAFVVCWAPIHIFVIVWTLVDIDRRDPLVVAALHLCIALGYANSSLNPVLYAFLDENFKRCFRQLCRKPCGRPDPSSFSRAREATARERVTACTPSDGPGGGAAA
Sequence of Mu-type opioid receptor (P35372 whole entry): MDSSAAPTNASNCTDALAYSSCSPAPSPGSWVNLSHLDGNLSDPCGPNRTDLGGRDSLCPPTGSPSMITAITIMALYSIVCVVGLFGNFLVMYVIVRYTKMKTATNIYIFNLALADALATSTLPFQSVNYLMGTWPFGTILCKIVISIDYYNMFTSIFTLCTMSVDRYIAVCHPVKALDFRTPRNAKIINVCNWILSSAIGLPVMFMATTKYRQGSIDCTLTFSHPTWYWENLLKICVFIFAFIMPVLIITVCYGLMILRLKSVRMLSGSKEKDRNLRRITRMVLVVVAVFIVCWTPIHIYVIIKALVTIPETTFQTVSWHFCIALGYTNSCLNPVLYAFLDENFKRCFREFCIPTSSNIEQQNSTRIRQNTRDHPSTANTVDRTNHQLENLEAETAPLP
Sequence of Potassium channel subfamily K member 9 (Q9NPC2 whole entry, the tested form may be a part): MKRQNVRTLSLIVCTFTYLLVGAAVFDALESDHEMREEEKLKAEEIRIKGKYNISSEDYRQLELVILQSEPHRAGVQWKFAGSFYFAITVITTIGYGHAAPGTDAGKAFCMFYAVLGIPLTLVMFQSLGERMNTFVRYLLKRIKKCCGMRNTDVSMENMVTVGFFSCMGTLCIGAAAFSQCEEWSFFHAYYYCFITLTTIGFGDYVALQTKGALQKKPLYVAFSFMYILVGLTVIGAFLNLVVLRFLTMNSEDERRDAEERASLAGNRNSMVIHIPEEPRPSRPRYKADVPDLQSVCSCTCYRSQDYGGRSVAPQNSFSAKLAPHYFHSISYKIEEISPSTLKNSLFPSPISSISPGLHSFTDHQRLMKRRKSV
Sequence of Induced myeloid leukemia cell differentiation protein Mcl-1 (Q07820 whole entry): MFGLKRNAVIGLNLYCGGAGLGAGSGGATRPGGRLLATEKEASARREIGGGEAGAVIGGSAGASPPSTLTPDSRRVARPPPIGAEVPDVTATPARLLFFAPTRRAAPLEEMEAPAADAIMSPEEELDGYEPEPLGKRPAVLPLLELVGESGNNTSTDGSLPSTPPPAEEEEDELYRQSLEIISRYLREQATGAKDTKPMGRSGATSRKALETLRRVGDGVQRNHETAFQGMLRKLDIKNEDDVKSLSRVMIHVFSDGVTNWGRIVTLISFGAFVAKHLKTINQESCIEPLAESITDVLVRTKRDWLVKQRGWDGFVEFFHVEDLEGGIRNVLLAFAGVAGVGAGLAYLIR
Sequence of Paired box protein Pax-8 (Q06710 whole entry): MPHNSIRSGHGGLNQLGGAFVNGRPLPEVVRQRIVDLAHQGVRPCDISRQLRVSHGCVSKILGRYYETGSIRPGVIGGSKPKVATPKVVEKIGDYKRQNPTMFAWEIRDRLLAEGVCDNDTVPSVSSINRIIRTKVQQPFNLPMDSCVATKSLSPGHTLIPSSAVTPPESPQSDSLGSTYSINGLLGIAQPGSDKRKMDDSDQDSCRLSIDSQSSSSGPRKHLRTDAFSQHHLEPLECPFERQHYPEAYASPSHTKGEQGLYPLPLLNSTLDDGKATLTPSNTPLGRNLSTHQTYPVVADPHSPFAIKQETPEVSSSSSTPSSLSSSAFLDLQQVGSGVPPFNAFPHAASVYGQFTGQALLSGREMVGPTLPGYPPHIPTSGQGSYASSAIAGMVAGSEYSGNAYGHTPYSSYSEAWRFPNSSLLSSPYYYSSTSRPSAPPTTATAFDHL
Sequence of Potassium channel subfamily K member 3 (O54912 whole entry, the tested form may be a part): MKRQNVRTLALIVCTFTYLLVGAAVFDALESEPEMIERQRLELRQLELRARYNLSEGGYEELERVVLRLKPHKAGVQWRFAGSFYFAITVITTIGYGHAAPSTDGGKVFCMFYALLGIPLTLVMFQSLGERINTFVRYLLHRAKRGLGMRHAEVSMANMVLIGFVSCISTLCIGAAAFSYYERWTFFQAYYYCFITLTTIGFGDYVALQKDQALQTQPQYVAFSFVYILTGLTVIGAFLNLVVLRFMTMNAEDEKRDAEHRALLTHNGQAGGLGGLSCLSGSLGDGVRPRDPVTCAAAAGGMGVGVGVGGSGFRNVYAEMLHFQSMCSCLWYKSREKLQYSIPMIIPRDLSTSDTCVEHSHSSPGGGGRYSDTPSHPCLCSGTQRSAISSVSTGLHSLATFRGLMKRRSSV
Sequence of 5-hydroxytryptamine receptor 5A (P47898 whole entry, the tested form may be a part): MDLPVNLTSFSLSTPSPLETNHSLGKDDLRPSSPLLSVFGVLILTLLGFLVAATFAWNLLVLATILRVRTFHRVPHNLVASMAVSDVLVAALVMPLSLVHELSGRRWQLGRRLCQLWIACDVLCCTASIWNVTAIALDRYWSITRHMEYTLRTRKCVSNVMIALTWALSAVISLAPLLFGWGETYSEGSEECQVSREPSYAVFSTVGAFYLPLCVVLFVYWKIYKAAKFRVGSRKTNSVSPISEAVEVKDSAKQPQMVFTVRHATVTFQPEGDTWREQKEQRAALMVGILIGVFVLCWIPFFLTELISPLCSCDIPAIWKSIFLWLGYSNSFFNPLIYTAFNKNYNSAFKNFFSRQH
Sequence of Beta Lactamase (Q932Y6 whole entry): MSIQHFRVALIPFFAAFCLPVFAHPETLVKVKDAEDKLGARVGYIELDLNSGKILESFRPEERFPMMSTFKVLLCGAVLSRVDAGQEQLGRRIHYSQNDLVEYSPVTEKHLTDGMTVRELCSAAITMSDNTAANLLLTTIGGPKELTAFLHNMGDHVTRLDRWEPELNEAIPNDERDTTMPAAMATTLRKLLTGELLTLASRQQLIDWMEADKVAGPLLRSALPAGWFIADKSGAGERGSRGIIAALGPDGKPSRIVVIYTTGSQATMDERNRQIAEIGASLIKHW

Cc1cc2[nH]c3c4ccccc4nc(C)c3c2cc1C
EC50 [1]: > 92.4 µM (inactive)
EC50 (Mu-type opioid receptor): > 92.4 µM (inactive)
EC50 [2]: > 92.4 µM (inactive)
IC50 [3]: 15.5 µM (inactive)
IC50 (Beta Lactamase): 23.6 µM (inactive)
AC50 [4]: 10.8 µM (active)
CC50 [5]: 12.4 µM (active)
IC50 [6]: 38.9 µM (active)
IC50 [7]: 19 µM (inactive)
AC50 [8]: 3.57 µM (active)

COc1ccc(C(=O)NC(C)Cc2ccccn2)cc1OC1CCN(C(C)C)CC1 (centres undefined)
IC50 [9]: 4.6 µM (active)

CO[C@H]1CN(C)C(=O)c2cc(NC(=O)Nc3ccc(C(F)(F)F)cc3)ccc2OC[C@H](C)NC[C@H]1C
AC50 [10]: > 52 µM (inactive)
AC50 [11]: > 52 µM (inactive)
AC50 [12]: > 52 µM (inactive)
AC50 [13]: 1.37 µM (active)
AC50 [14]: 19.2 µM (active)
AC50 [15]: 2.49 µM (active)
AC50 [16]: 1.56 µM (active)
AC50 [17]: 2.76 µM (active)

Cc1cccc(C(=O)NC(=S)NNC(=O)c2ccc(Cl)cc2)c1
EC50 [18]: 0.362 µM (active)
IC50 [19]: 25.8 µM (not active)
EC50 (Streptococcus): 1.09 µM (active)
IC50 [20]: 21.9 µM (inactive)

NC(=O)COc1cccc(/C=N/NC(=O)c2ccc(-n3cccc3)cc2)c1
EC50 [21]: > 29.9 µM (inactive)
IC50 [22]: > 1.11 µM (active)
IC50 [23]: > 29.9 µM (inactive)
EC50 [24]: > 29.9 µM (inactive)

Cc1noc(C)c1NC(=O)N(C)C[C@@H]1Oc2cc(Br)ccc2S(=O)(=O)N([C@@H](C)CO)C[C@H]1C
AC50 [25]: > 30 µM (inactive)

O=C(CCNC(=O)c1ccc(OC(F)(F)F)cc1)N[C@@H]1CCCc2ccccc21
AC50 [26]: 6.21 µM (active)
AC50 [27]: 26 µM (active)

COc1ccc(S(=O)(=O)Nc2ccc3c(c2)C(=O)N([C@@H](C)CO)C[C@@H](C)[C@H](CN(C)Cc2ccc(C(F)(F)F)cc2)OCCCC[C@H](C)O3)cc1
AC50 (Paired box protein Pax-8): 10.8 µM (active)
AC50 [28]: 45.4 µM (active)

CC1CCCN(CCCOc2ccc(Br)cc2Cl)C1 (centres undefined)
AC50 [29]: 8.98 µM (active)
AC50 (Vero): 25.2 µM (active)
AC50 (BHK-21): 38.8 µM (active)
AC50 (A549): 27.2 µM (active)

CCOc1ccccc1C(=O)Nc1cccc(NC(=O)c2ccccc2C(F)(F)F)c1
IC50 [30]: 1.04 µM (active)
IC50 [31]: 0.01 µM (active)

O=C(Nc1ccc(F)cc1)c1ccc2nsnc2c1
AC50 [32]: > 52 µM (inactive)

Reference: ChEMBL document CHEMBL1201862, “PubChem BioAssay data set” (2004)
